Molecular target: T1, Bcl-2 protein (Recombinant Human Bcl-2 Protein) (Homo sapiens, UniProt P10415)
T1 construct: purchased Novus NBP2-34889
Assay: Binding evaluation of mixture library compounds to Bcl-2 using AS-MS (affinity selection mass spectrometry)
Settings: for ASMS ratio (%) n = 1 / ASMS ratio (%) n = 2: ASMS Ratio(%)=(A−C)/B×100; for ASMS ratio (%) n = 1: replicate n = 1; for ASMS ratio (%) n = 2: replicate n = 2
How it was run: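 Readout is ASMS Ratio (%), (A−C)/B×100, from reversed-phase LC/MS of SEC-passed extracts, with protein-free unfiltered standard (B) and protein-free SEC blank (C). Recombinant human Bcl-2 at 20 μM final met ~1200 pooled compounds at […] each for 1 h, 23° C., dark, in Tris-HCl pH 7.4 buffer.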

[1] = AS-MS, mixture of 1200 compounds, Bcl-2
[2] = AS-MS on the mixture of 1200 library compounds

T1 sequence (P10415 whole entry): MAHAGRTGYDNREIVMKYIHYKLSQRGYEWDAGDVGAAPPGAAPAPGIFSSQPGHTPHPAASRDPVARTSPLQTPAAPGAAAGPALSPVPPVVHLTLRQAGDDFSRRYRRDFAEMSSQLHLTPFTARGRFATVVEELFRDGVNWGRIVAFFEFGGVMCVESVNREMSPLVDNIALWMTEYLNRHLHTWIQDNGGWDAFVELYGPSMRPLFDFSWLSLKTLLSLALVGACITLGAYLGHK

Compound | ASMS ratio (%) (n = 1) | ASMS ratio (%) (n = 2) | ASMS ratio (%) n = 1 [1] [%] | ASMS ratio (%) n = 2 [1] [%] | also measured
CCOc1cncc(-c2cnn(-c3cc(C(=O)N4CCN(c5ccc(C(=O)NS(=O)(=O)c6ccc(NCCSc7ccccc7)c(C(F)(F)F)c6)cc5)CC4)cc(C(F)(F)F)c3)c2)c1 [B2R044-01, 4-[4-[3-[4-(5-Ethoxypyridin-3-yl)pyrazol-1-yl]-5-(trifluoromethyl)benzoyl]piperazin-1-yl]-N-[4-(2-phenylsulfanylethylamino)-3-(trifluoromethyl)phenyl]sulfonylbenzamide] | −3.7 | −4.1 |  |  | 
4-[4-[1-[4-(3-Ethoxyphenyl)-2-fluorophenyl]ethyl]piperazin-1-yl]-N-propylbenzamide [B1M005-01] |  |  | 0.0 | 1.4 | 
CCOc1cncc(-c2ccc(CN3CCN(c4ccc(C(=O)NS(=O)(=O)c5ccc(NCCSc6ccccc6)c([N+](=O)[O-])c5)cc4)CC3)c(CC)c2)c1 [B2Q050-01, 4-[4-[[4-(5-Ethoxypyridin-3-yl)-2-ethylphenyl]methyl]piperazin-1-yl]-N-[3-nitro-4-(2-phenylsulfanylethylamino)phenyl]sulfonylbenzamide] |  |  |  |  | ASMS ratio (%) n = 1 (AS-MS, mixture library, Bcl-2): 0.0%; ASMS ratio (%) n = 2 (AS-MS, mixture library, Bcl-2): 0.0%
CCOc1cccc(C#Cc2ccccc2C(=O)N2CCN(c3ccc(C(=O)N(CC)CC)cc3)CC2)c1 [B4J029-01, 4-[4-[2-[2-(3-Ethoxyphenyl)ethynyl]benzoyl]piperazin-1-yl]-N,N-diethylbenzamide] |  |  |  |  | ASMS ratio (%) n = 1 [2]: 0.0%; ASMS ratio (%) n = 2 [2]: 0.0%
4-[4-[5-[2-(3-Ethoxyphenyl)ethynyl]pyridine-3-carbonyl]piperazin-1-yl]-N-propylbenzamide [B1M002-01] |  |  | −0.7 | −1.5 | 
CCOc1cncc(-c2ccc(CN3CCN(c4ccc(C(=O)NCC(F)(F)F)cc4)CC3)cc2C)c1 [B1K048-01, 4-[4-[[4-(5-Ethoxypyridin-3-yl)-3-methylphenyl]methyl]piperazin-1-yl]-N-(2,2,2-trifluoroethyl)benzamide] |  |  | 0.1 | 1.2 | 
4-[4-[[3-(5-Ethoxypyridin-3-yl)-5-(trifluoromethoxy)phenyl]methyl]piperazin-1-yl]-N-propylbenzamide [B1M034-01] |  |  | −0.3 | −0.2 | 
CCOc1cncc(C#Cc2ccccc2CN2CCN(c3ccc(C(=O)N(C)CC45CC6CC(CC(C6)C4)C5)cc3)CC2)c1 [B3A070-01, N-(1-Adamantylmethyl)-4-[4-[[2-[2-(5-ethoxypyridin-3-yl)ethynyl]phenyl]methyl]piperazin-1-yl]-N-methylbenzamide] |  |  |  |  | ASMS ratio (%) n = 1 [2]: 7.7%; ASMS ratio (%) n = 2 [2]: −8.1%
CCOc1cccc(-c2cc(OC)c(CN3CCN(c4ccc(C(=O)NS(=O)(=O)c5ccc(NCCSc6ccccc6)c(C(F)(F)F)c5)cc4)CC3)c(OC)c2)c1 [B2R059-01, 4-[4-[[4-(3-Ethoxyphenyl)-2,6-dimethoxyphenyl]methyl]piperazin-1-yl]-N-[4-(2-phenylsulfanylethylamino)-3-(trifluoromethyl)phenyl]sulfonylbenzamide] | 0.0 | 0.0 |  |  | 
CCOc1cncc(-c2cc(CN3CCN(c4ccc(C(=O)NCC56CC7CC(CC(C7)C5)C6)cc4)CC3)cc(OC(C)C)c2)c1 [B1A058-01, N-(1-Adamantylmethyl)-4-[4-[[3-(5-ethoxypyridin-3-yl)-5-propan-2-yloxyphenyl]methyl]piperazin-1-yl]benzamide] |  |  |  | 0.0 | 

More lines, main results first:

ASMS ratio (%) (n = 1) | ASMS ratio (%) (n = 2) | Compound | ASMS ratio (%) n = 1 [1] [%] | ASMS ratio (%) n = 2 [1] [%] | also measured
0.0 | −8.4 | CCOc1cncc(-c2ccc(CN3CCN(c4ccc(C(=O)NS(C)(=O)=O)nn4)CC3)cc2C)c1 [B2I074-01, 6-[4-[[4-(5-Ethoxypyridin-3-yl)-3-methylphenyl]methyl]piperazin-1-yl]-N-methylsulfonylpyridazine-3-carboxamide] |  |  | 
0.0 | 0.0 | CCOc1cncc(-c2cc(C(=O)N3CCN(c4ccc(C(=O)NS(=O)(=O)C(C)(C)C)cc4)CC3)cc(C(C)(C)C)c2)c1 [B2L038-01, 4-[4-[3-tert-Butyl-5-(5-ethoxypyridin-3-yl)benzoyl]piperazin-1-yl]-N-tert-butylsulfonylbenzamide] |  |  | 

Reference: patent US20240132431A1, “METHOD FOR ALKYLATING ACIDIC FUNCTIONAL GROUP” (Chugai Seiyaku Kabushiki Kaisha, priority 2021, published 2024)
